The source made the active and inactive calls.
Experiments:
[1] = Metabolic stability in human liver microsomes assessed as half life measured up to 60 mins in presence of NADPH by LC-MS/MS analysis; type: ADME, Microsome
[2] = Metabolic stability in mouse liver microsomes assessed as half life measured up to 60 mins in presence of NADPH by LC-MS/MS analysis; type: ADME, Microsome
[3] = Metabolic stability in human liver microsomes assessed as intrinsic clearance measured up to 60 mins in presence of NADPH by LC-MS/MS analysis; type: ADME, Microsome; settings: 1 h
[4] = biological target: T1, Bifunctional epoxide hydrolase 2 (Homo sapiens, UniProt P34913); assay: Inhibition of human recombinant sEH expressed in baculovirus infected Sf9 cells using PHOME as substrate preincubated for 10 mins followed by substrate addition measured after 60 mins by fluorescence based assay; type: cell-based
T1 sequence (P34913 whole entry): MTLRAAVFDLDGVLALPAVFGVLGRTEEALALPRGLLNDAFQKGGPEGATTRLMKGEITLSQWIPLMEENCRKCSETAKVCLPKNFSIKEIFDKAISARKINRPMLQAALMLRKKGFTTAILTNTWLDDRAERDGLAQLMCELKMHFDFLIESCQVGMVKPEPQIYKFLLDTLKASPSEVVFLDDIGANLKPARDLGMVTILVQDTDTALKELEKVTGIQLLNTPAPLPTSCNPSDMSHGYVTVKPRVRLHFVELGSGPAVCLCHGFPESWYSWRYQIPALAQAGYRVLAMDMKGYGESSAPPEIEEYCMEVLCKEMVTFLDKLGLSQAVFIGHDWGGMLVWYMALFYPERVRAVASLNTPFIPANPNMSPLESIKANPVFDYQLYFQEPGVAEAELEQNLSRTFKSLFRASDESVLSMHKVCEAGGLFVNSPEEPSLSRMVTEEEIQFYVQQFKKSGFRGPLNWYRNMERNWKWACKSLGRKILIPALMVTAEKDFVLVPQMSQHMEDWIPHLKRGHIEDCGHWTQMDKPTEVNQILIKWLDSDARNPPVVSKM

[5] = AUC (0 to infinity) in male CD-1 mouse at 2 mg/kg, iv measured up to 24 hrs by LC-MS/MS analysis; type: ADME, organism-based; settings: in vivo
[6] = Cytotoxicity against human PBMC at 10 uM incubated for 24 hrs by MTT assay; type: toxicity, cell-based
Mus musculus [7] = assay: Analgesic activity in PTX-induced neuropathic pain male C57BL/6 mouse model assessed as improvement in mechanical paw withdrawal threshold at 30 mg/kg, po administered for 14 days by Von Frey test; type: functional, organism-based; settings: time 14.0 day
Mus musculus [8] = assay: Analgesic activity in PTX-induced neuropathic pain male C57BL/6 mouse model assessed as improvement in mechanical paw withdrawal threshold at 10 to 30 mg/kg, po measured for 2 to 4 hrs by Von Frey test; type: functional, organism-based; settings: dose 10-30 mg/kg, time 2-4 hrs
[9] = Half life in male CD-1 mouse at 10 mg/kg, po measured up to 24 hrs by LC-MS/MS analysis; type: ADME, organism-based; settings: in vivo
PBMC [10] = assay: Anti-inflammatory activity in LPS-induced human PBMC assessed as reduction in TNF-alpha level pre-incubated with compound for 30 mins followed by LPS stimulation and measured after 6 hrs by ELISA; type: functional, cell-based; settings: dose 1-1000 nM, time 390.0 min
[11] = MRT in male CD-1 mouse at 2 mg/kg, iv measured up to 24 hrs by LC-MS/MS analysis; type: ADME, organism-based; settings: in vivo
[12] = Oral bioavailability in male CD-1 mouse at 10 mg/kg measured up to 24 hrs by LC-MS/MS analysis; type: ADME, organism-based; settings: in vivo
[13] = Permeability coefficient of compound in PBS at pH 7.4 at 10 uM incubated for 16 hrs PAMPA-BBB assay
Mus musculus [14] = assay: Analgesic activity in PTX-induced neuropathic pain male C57BL/6 mouse model assessed as improvement in mechanical paw withdrawal threshold at 10 mg/kg, po measured up to 4 hrs by Von Frey test; type: functional, organism-based
[15] = C0 in male CD-1 mouse at 2 mg/kg, iv measured up to 24 hrs by LC-MS/MS analysis; type: ADME, organism-based; settings: in vivo
Mus musculus [16] = assay: Analgesic activity in PTX-induced neuropathic pain male C57BL/6 mouse model assessed as improvement in mechanical paw withdrawal threshold at 30 mg/kg, po measured up to 4 hrs by Von Frey test; type: functional, organism-based
[17] = Half life in male CD-1 mouse at 2 mg/kg, iv measured up to 24 hrs by LC-MS/MS analysis; type: ADME, organism-based; settings: in vivo
PBMC [18] = assay: Anti-inflammatory activity in LPS-induced human PBMC assessed as reduction in IL-6 level pre-incubated with compound for 30 mins followed by LPS stimulation and measured after 6 hrs by ELISA; type: functional, cell-based; settings: dose 1-1000 nM
[19] = MRT in male CD-1 mouse at 10 mg/kg, po measured up to 24 hrs by LC-MS/MS analysis; type: ADME, organism-based; settings: in vivo
[20] = Volume of distribution at steady state in male CD-1 mouse at 2 mg/kg, iv measured up to 24 hrs by LC-MS/MS analysis; type: ADME, organism-based; settings: in vivo, read-out: Vdss
[21] = AUC (0 to infinity) in male CD-1 mouse at 10 mg/kg, po measured up to 24 hrs by LC-MS/MS analysis; type: ADME, organism-based; settings: in vivo
[22] = Cmax in male CD-1 mouse at 10 mg/kg, po measured up to 24 hrs by LC-MS/MS analysis; type: ADME, organism-based; settings: in vivo
[23] = Clearance in male CD-1 mouse at 2 mg/kg, iv measured up to 24 hrs by LC-MS/MS analysis; type: ADME, organism-based; settings: in vivo
Mus musculus [24] = assay: Analgesic activity in PTX-induced neuropathic pain male C57BL/6 mouse model assessed as improvement in mechanical paw withdrawal threshold at 60 mg/kg, po administered for 14 days by Von Frey test; type: functional, organism-based; settings: time 14.0 day
[25] = Toxicity in PTX-induced neuropathic pain male C57BL/6 mouse model assessed as change in body weight at 60 mg/kg/day, po treated for 14 days; type: organism-based; settings: in vivo, 336 h, time 14 day
Mus musculus [26] = assay: Analgesic activity in PTX-induced neuropathic pain male C57BL/6 mouse model assessed as improvement in mechanical paw withdrawal threshold at 60 mg/kg, po measured up to 4 hrs by Von Frey test; type: functional, organism-based

For `Cn1nc(-c2ccc(NC(=O)NCc3ccccc3C(F)(F)F)cc2)ccc1=O`, the half-life [1] was greater than 185 min, the half-life [2] was greater than 185 min and the CLH [3] was less than 7.5 µL/min/mg.
Work on `O=C(NCc1ccccc1F)Nc1ccc(-c2ccc(=O)[nH]n2)cc1` yielded an IC50 [4] of no less than 100 nM.
For `O=C(Cc1ccccc1C(F)(F)F)Nc1ccc(-c2ccc(=O)[nH]n2)cc1`, the IC50 [4] was greater than 100 nM.
`O=C(NCc1cccc(C(F)(F)F)c1)Nc1ccc(-c2ccc(=O)[nH]n2)cc1` gave an IC50 [4] of no less than 100 nM.
For `O=C(NCc1ccccc1)Nc1ccc(-c2ccc(=O)[nH]n2)cc1`, the IC50 [4] was greater than 100 nM.
In the case of `O=C(NCc1ccccc1OC(F)(F)F)Nc1ccc(-c2ccc(=O)[nH]n2)cc1`, the AUC(0-inf) [5] is reported as 7630 ng·h/mL, the Activity [6] is reported as “Non-toxic” and the Activity (Mus musculus [7]) is reported as “Active; Effect Was Lower Than Gabapentin With Chronic Use, But Its Efficacy Remained Stable”. For the same molecule, the Activity (Mus musculus [8]) was “Active”, the half-life [9] was 146 min and the half-life [1] was greater than 185 min. For the same molecule, the half-life [2] was greater than 185 min, the Activity (PBMC [10]) was “Dose-dependent-effect” and the MRT [11] was 3.5 h. For the same molecule, the CLH [3] was less than 7.5 µL/min/mg, the bioavailability [12] was 78% and the Papp at 16 h, 10 µM [13] was 3.83 ×10⁻⁶ cm/s. For the same molecule, the Activity (Mus musculus [14]) was “inactive”, the C0 at 24 h [15] was 4640 ng/mL and the Activity (Mus musculus [16]) was “Active”. The half-life [17] was 193 min, the Activity (PBMC [18]) was “Dose-dependent-effect” and the MRT [19] was 5.23 h. For the same molecule, the Vd [20] was 1.02 L/kg, the AUC(0-inf) [21] was 29700 ng·h/mL and the Cmax [22] was 4700 ng/mL. For the same molecule, the clearance [23] was 4.8 mL/min/kg.
With `NCC1(CC(=O)O)CCCCC1` [GABAPENTIN] the Activity (Mus musculus [24]) was “Active; Compound Effect Noticeably Decreased With Prolonged Administration”, the Activity [25] was “Non-toxic” and the Activity (Mus musculus [26]) was “Active; Exhibited Consistent And Prolonged Effect”.
Molecule `O=C(NCc1ccc(C(F)(F)F)cc1)Nc1ccc(-c2ccc(=O)[nH]n2)cc1` has an IC50 [4] of no less than 100 nM.
For `O=C(NCc1ccccc1C(F)(F)F)Nc1ccc(-c2ccc(=O)[nH]n2)cc1`, the half-life [1] was greater than 185 min, the half-life [2] was greater than 185 min and the CLH [3] was less than 7.5 µL/min/mg.
For `COc1ccc(CNC(=O)Nc2ccc(-c3ccc(=O)[nH]n3)cc2)c(C(F)(F)F)c1`, the half-life [1] was greater than 185 min, the half-life [2] was 23.6 min and the CLH [3] was less than 7.5 µL/min/mg.
`CN(Cc1cnc2nc(N)nc(N)c2n1)c1ccc(C(=O)N[C@@H](CCC(=O)O)C(=O)O)cc1` [METHOTREXATE] showed a Kp ([13]; 16 h, 10 µM) of 0.001 ×10⁻⁶ cm/s.
